How the values were obtained:
AAD1 (v1) = target: T1, AAD1 (v1) (Sphingobium herbicidovorans, UniProt Q8KSC8); assay: HPLC analysis of herbicide degradation by AAD1 (v1) cell extract; assay type: biochemical
T1 construct: made in house; host or cells: E. coli BL-21 Star (DE3), plasmid pDAB3203

[1] = system: Kentucky bluegrass cv Shamrock callus; assay: Callus selection conditions with quizalofop and haloxyfop: Kentucky bluegrass; assay type: cell-based
Protocol: Selection conditions for creeping bentgrass cv Crenshaw and Kentucky bluegrass cv Shamrock were established using the grass-active herbicides, quizalofop and haloxyfop. Concentrations of quizalofop and haloxyfop ranged from 0 to 300 nM dissolved in defined callus maintenance media for each species. Callus tissue, derived from mature seeds of each species or cultivar, was used in the experiment. In the case of creeping bentgrass cv Crenshaw, calli maintained on CBG-3 medium were transferred to plates of CBG-3 medium containing either haloxyfop or quizalofop at 0, 50, 100, 150, 200, 250, and 300 nM final concentrations. Visual observations (growth of callus and development of necrosis) were made over a period of 1.5 months. For Kentucky bluegrass cv Shamrock and experimental line A98, calli maintained on KBG-2 were transferred to plates of KBG-2 medium containing 0, 50, 100, 150, 200, 250, and 300 nM final concentrations of the herbicides. Visual observations of callus growth and necrosis were made over a 2.5 month period. […] The calli became necrotic at lower concentrations of quizalofop relative to haloxyfop and the response was more rapid. […]

[2] = system: non-transformed (NT) and seed-derived (WT) creeping bentgrass; assay: Quizalofop-p-ethyl postemergence on non-transformed / seed-derived creeping bentgrass controls; assay type: in vivo, Agrostis stolonifera L. var. palustris
Protocol: (§1) Selected T0 plants were sprayed with quizalofop-p-ethyl (Assure II®, DUPONT, Wilmington, Del.) at rates ranging from 60 to 2,240 g ae/ha. […] This rate also controls susceptible monocot weed species. Measured amounts were placed individually in 25 mL glass vials and dissolved in a 4 mL volume of 1.0% (v/v) Agri-Dex® Crop Oil Concentrate (COC) from HELENA CHEMICAL (Collierville, Tenn.). Application solutions were prepared by serial dilution of the highest rate applied. One-half the volume of the highest rate stock solution (2 mL) was transferred to a clean 25 mL vial containing an equal volume of 1% COC and the diluted solution was mixed. Additional dilutions were prepared similarly by removing one-half the volume of the previous concentration (2 mL), and adding to an equal volume of 1% COC and mixing. When preparing the lowest concentration, the remaining one-half volume was discarded. All 2 mL stock solutions were further diluted by adding 10 mL aqueous mixture of 1.0% (v/v) COC, so that the final spray solutions were 12 mL in volume and contained 1.0% (v/v) COC.
(§2) Spray solutions were applied to the plant material with an overhead Mandel™ track sprayer equipped with a 8002E nozzles calibrated to deliver 187 L/ha over an application area of 0.503 square meters (m^2) at a spray height of 18 inches (46 cm) above average plant canopy height. Control plants were sprayed in the same manner with the COC blank.
(§3) The treated plants and control plants were placed in a greenhouse, and watered by sub-irrigation to prevent wash-off of the test compounds. At various times after application, the condition of the test plants as compared with that of the untreated plants was determined visually and scored on a scale of 0 to 100 percent (where 0 corresponds to no injury or growth inhibition and 100 corresponds to complete kill). Regenerated, non-transformed (NT) ‘Crenshaw’ or elite line 2905-2 creeping bentgrass plants and/or seed-derived clonally propagated plants served as quizalofop sensitive controls.

[3] = system: AAD1-transformed T0 ‘Crenshaw’ creeping bentgrass events (pDAB3878, pDAB5042); assay: Quizalofop-p-ethyl postemergence on AAD1-transformed T0 Crenshaw creeping bentgrass, visual % injury; assay type: in vivo, Agrostis stolonifera L. var. palustris
Protocol: After molecular confirmation was utilized to identify transgenic events, a number of transgenic events were tested for herbicide tolerance. Specific isolated transgenic events were selected and maintained vegetatively through division of the crowns and replanting the clonal pieces into fresh growth medium. Clonally propagated plants were maintained by periodic “mowing” of vegetative tissues.
Growth medium was prepared by mixing Promix® and sand in a 2 to 1 ratio. The medium was contained in plastic pots with a surface area of 84.6 square centimeters (cm^2). When required to maintain plant health, a fungicide, insecticide, and/or other chemical or physical treatment was applied to stock plants. The plants were maintained in a greenhouse with an approximate 14 hour photoperiod which was maintained at 24-27° C. during the day and 22-25° C. during the night. Nutrients (Peters Excel® 15-5-15 5-Ca 2-Mg and iron chelate) were applied in the irrigation solution as needed, and water was added on a regular basis. Supplemental lighting was provided with overhead metal halide 1000-Watt lamps when photosynthetically active radiation (PAR) dropped below 500.
as §1, §2, §3

T1 sequence (Q8KSC8 whole entry): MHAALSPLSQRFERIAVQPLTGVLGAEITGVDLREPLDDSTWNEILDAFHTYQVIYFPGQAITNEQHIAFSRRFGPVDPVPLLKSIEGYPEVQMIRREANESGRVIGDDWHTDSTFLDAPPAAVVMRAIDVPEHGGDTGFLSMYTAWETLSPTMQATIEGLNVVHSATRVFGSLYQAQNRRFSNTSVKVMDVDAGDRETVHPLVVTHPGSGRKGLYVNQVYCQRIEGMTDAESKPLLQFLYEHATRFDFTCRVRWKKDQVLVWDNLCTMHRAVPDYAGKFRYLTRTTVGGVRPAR

## Nc1c(Cl)c(F)nc(OCC(=O)O)c1Cl [Fluroxypyr]
AAD1 (v1); AAD1 (v1) cell extract, same conditions as 2,4-D
  enzyme activity on substrate (HPLC): No enzyme activity was detected

## O=C(O)COc1ccc(Cl)cc1Cl [2,4-D, 2,4-dichlorophenoxyacetic acid]
AAD1 (v1); partially purified proteins, in vitro
  conversion of 2,4-D to DCP: 50-100%
AAD1 (v1); regardless of assay conditions (longer incubations, more enzyme)
  2,4-D degraded to DCP as measured by HPLC: 50-75%

## CC(Oc1ccc(Oc2ncc(C(F)(F)F)cc2Cl)cc1)C(=O)O (stereo not drawn) [haloxyfop]
[1]
  concentration needed to kill all calli: 300 nM

## CCOC(=O)[C@@H](C)Oc1ccc(Oc2cnc3cc(Cl)ccc3n2)cc1 [quizalofop-p-ethyl]
[2]; 240 g ae/ha, regenerated non-transformed control NT1
  Visual Injury 39 DAA: 95%
[2]; both rates (120 and 480 g ae/ha)
  injury on non-transformed controls: ≥ 80%
[2]; non-transformed control NT1, 120 g ae/ha, 11 DAA
  Mean % Injury (SE): 83 (3) %
[2]; non-transformed control NT1, 120 g ae/ha, 14 DAA
  Mean % Injury (SE): 88 (3) %
[2]; non-transformed control NT1, 120 g ae/ha, 20 DAA
  Mean % Injury (SE): 90 (0) %
[2]; non-transformed control NT1, 480 g ae/ha, 11 DAA
  Mean % Injury (SE): 85 (0) %
[2]; non-transformed control NT1, 480 g ae/ha, 14 DAA
  Mean % Injury (SE): 90 (0) %
[2]; non-transformed control NT1, 480 g ae/ha, 20 DAA
  Mean % Injury (SE): 97 (2) %
[2]; non-transformed control NT2, 120 g ae/ha, 11 DAA
  Mean % Injury (SE): 80 (0) %
[2]; non-transformed control NT2, 120 g ae/ha, 14 DAA
  Mean % Injury (SE): 90 (0) %
[2]; non-transformed control NT2, 120 g ae/ha, 20 DAA
  Mean % Injury (SE): 93 (3) %
[2]; non-transformed control NT2, 480 g ae/ha, 11 DAA
  Mean % Injury (SE): 90 (0) %
[2]; non-transformed control NT2, 480 g ae/ha, 14 DAA
  Mean % Injury (SE): 90 (0) %
[2]; non-transformed control NT2, 480 g ae/ha, 20 DAA
  Mean % Injury (SE): 97 (2) %
[2]; seed grown plants
  GR90 (herbicide rate which produces 90% injury and/or growth inhibition): approximately 60 g ae/ha
[3]; 120 g ae/ha
  injury of events CBG12 and CBG23: uninjured
[3]; 480 g ae/ha
  injury of events CBG12 and CBG23: less than 10%
[3]; event CBG2, 120 g ae/ha, 11 DAA
  Mean % Injury (SE): 30 (0) %
[3]; event CBG2, 120 g ae/ha, 14 DAA
  Mean % Injury (SE): 30 (0) %
[3]; event CBG2, 120 g ae/ha, 20 DAA
  Mean % Injury (SE): 25 (0) %
[3]; event CBG2, 480 g ae/ha, 11 DAA
  Mean % Injury (SE): 45%
[3]; event CBG2, 480 g ae/ha, 14 DAA
  Mean % Injury (SE): 45%
[3]; event CBG2, 480 g ae/ha, 20 DAA
  Mean % Injury (SE): 40%
[3]; event CBG4, 120 g ae/ha, 11 DAA
  Mean % Injury (SE): 70 (0) %
[3]; event CBG4, 120 g ae/ha, 14 DAA
  Mean % Injury (SE): 85 (0) %
[3]; event CBG4, 120 g ae/ha, 20 DAA
  Mean % Injury (SE): 90 (3) %
[3]; event CBG5, 120 g ae/ha, 11 DAA
  Mean % Injury (SE): 32 (6) %
[3]; event CBG5, 120 g ae/ha, 14 DAA
  Mean % Injury (SE): 42 (8) %
[3]; event CBG5, 120 g ae/ha, 20 DAA
  Mean % Injury (SE): 23 (7) %
[3]; event CBG5, 480 g ae/ha, 11 DAA
  Mean % Injury (SE): 30 (5) %
[3]; event CBG5, 480 g ae/ha, 14 DAA
  Mean % Injury (SE): 30 (5) %
[3]; event CBG5, 480 g ae/ha, 20 DAA
  Mean % Injury (SE): 10 (0) %
[3]; event CBG12, 120 g ae/ha, 11 DAA
  Mean % Injury (SE): 0 (0) %
[3]; event CBG12, 120 g ae/ha, 14 DAA
  Mean % Injury (SE): 0 (0) %
[3]; event CBG12, 120 g ae/ha, 20 DAA
  Mean % Injury (SE): 0 (0) %
[3]; event CBG12, 480 g ae/ha, 11 DAA
  Mean % Injury (SE): 5 (3) %
[3]; event CBG12, 480 g ae/ha, 14 DAA
  Mean % Injury (SE): 5 (3) %
[3]; event CBG12, 480 g ae/ha, 20 DAA
  Mean % Injury (SE): 5 (0) %
[3]; event CBG14, 120 g ae/ha, 11 DAA
  Mean % Injury (SE): 15 (5) %
[3]; event CBG14, 120 g ae/ha, 14 DAA
  Mean % Injury (SE): 18 (3) %
[3]; event CBG14, 120 g ae/ha, 20 DAA
  Mean % Injury (SE): 5 (5) %
[3]; event CBG14, 480 g ae/ha, 11 DAA
  Mean % Injury (SE): 30%
[3]; event CBG14, 480 g ae/ha, 14 DAA
  Mean % Injury (SE): 25%
[3]; event CBG14, 480 g ae/ha, 20 DAA
  Mean % Injury (SE): 15%
[3]; event CBG23, 120 g ae/ha, 11 DAA
  Mean % Injury (SE): 0 (0) %
[3]; event CBG23, 120 g ae/ha, 14 DAA
  Mean % Injury (SE): 0 (0) %
[3]; event CBG23, 120 g ae/ha, 20 DAA
  Mean % Injury (SE): 0 (0) %
[3]; event CBG23, 480 g ae/ha, 11 DAA
  Mean % Injury (SE): 7 (2) %
[3]; event CBG23, 480 g ae/ha, 14 DAA
  Mean % Injury (SE): 7 (3) %
[3]; event CBG23, 480 g ae/ha, 20 DAA
  Mean % Injury (SE): 0 (0) %
[3]; event CBG27, 120 g ae/ha, 11 DAA
  Mean % Injury (SE): 68 (3) %
[3]; event CBG27, 120 g ae/ha, 14 DAA
  Mean % Injury (SE): 75 (5) %
[3]; event CBG27, 120 g ae/ha, 20 DAA
  Mean % Injury (SE): 75 (5) %
[3]; event CBG27, 480 g ae/ha, 11 DAA
  Mean % Injury (SE): 85%
[3]; event CBG27, 480 g ae/ha, 14 DAA
  Mean % Injury (SE): 85%
[3]; event CBG27, 480 g ae/ha, 20 DAA
  Mean % Injury (SE): 85%
[3]; event CBG31, 120 g ae/ha, 11 DAA
  Mean % Injury (SE): 0%
[3]; event CBG31, 120 g ae/ha, 14 DAA
  Mean % Injury (SE): 5%
[3]; event CBG31, 120 g ae/ha, 20 DAA
  Mean % Injury (SE): 0%
[3]; event CBG32, 120 g ae/ha, 11 DAA
  Mean % Injury (SE): 5 (0) %
[3]; event CBG32, 120 g ae/ha, 14 DAA
  Mean % Injury (SE): 0 (0) %
[3]; event CBG32, 120 g ae/ha, 20 DAA
  Mean % Injury (SE): 0 (0) %
[3]; event CBG32, 480 g ae/ha, 11 DAA
  Mean % Injury (SE): 20%
[3]; event CBG32, 480 g ae/ha, 14 DAA
  Mean % Injury (SE): 20%
[3]; event CBG32, 480 g ae/ha, 20 DAA
  Mean % Injury (SE): 5%
[3]; event CBG33, 120 g ae/ha, 11 DAA
  Mean % Injury (SE): 8 (3) %
[3]; event CBG33, 120 g ae/ha, 14 DAA
  Mean % Injury (SE): 10 (0) %
[3]; event CBG33, 120 g ae/ha, 20 DAA
  Mean % Injury (SE): 5 (0) %
[3]; event CBG33, 480 g ae/ha, 11 DAA
  Mean % Injury (SE): 15%
[3]; event CBG33, 480 g ae/ha, 14 DAA
  Mean % Injury (SE): 15%
[3]; event CBG33, 480 g ae/ha, 20 DAA
  Mean % Injury (SE): 15%
[3]; event CBG38, 120 g ae/ha, 11 DAA
  Mean % Injury (SE): 14 (1) %
[3]; event CBG38, 120 g ae/ha, 14 DAA
  Mean % Injury (SE): 13 (3) %
[3]; event CBG38, 120 g ae/ha, 20 DAA
  Mean % Injury (SE): 6 (1) %
[3]; event CBG38, 480 g ae/ha, 11 DAA
  Mean % Injury (SE): 22 (4) %
[3]; event CBG38, 480 g ae/ha, 14 DAA
  Mean % Injury (SE): 22 (4) %
[3]; event CBG38, 480 g ae/ha, 20 DAA
  Mean % Injury (SE): 13 (2) %

Reference: patent publication US10450549B2, “Aryloxyphenoxypropionate tolerance in turfrgass species and use of AAD1 as a selectable marker” (Dow AgroSciences, LLC, priority 2004, dated 2019)
